This experiment addresses Integrin alpha-5/beta-1 (Homo sapiens, UniProt P05556+P08648). Nature of the experiment: Cell Adhesion Assay: Evaluation of cell attachment to extracellular matrix proteins was performed as previously described by Yokosaki et al, J. Biol. Chem., 271: (39): 24144-24150 (1996). Briefly, wells of non-tissue culture-treated polystyrene 96-well flat-bottom microtiter plates (Linbro/Titertek, Flow Laboratories, McLean, Va.) were coated by incubation with 100 μl of each substrate in PBS at 37° C. for 1 hour. 96-well flat-bottomed tissue culture plates were coated with human plasma fibronectin for 1 hour at 37° C. After incubation, wells were washed with PBS, then blocked with 1% bovine serum albumin (BSA) for one hour. Control wells were filled with 1% BSA. SW480 cells were detached using 10 mM EDTA and resuspended in serum-free DMEM. For blocking experiments, cells were incubated with 10 μg/ml of the antibody for 15 minutes at 4° C. before plating. The plates were centrifuged at 10 g for 5 minutes before incubation for 1 hour at 37° C. in humidified 5% CO2. Nonadherent cells were removed by centrifugation (top side down) at 10 g for 5 minutes. Attached cells were stained with 0.5% crystal violet, and the wells were washed with PBS. The relative number of cells in each well was evaluated after solubilization in 40 μl of 2% Triton X-100 by measuring absorbance at 595 nm in a microplate reader. All determinations were carried out in triplicate.

Chain of Integrin alpha-5/beta-1 (P05556 21-798 limits assumed): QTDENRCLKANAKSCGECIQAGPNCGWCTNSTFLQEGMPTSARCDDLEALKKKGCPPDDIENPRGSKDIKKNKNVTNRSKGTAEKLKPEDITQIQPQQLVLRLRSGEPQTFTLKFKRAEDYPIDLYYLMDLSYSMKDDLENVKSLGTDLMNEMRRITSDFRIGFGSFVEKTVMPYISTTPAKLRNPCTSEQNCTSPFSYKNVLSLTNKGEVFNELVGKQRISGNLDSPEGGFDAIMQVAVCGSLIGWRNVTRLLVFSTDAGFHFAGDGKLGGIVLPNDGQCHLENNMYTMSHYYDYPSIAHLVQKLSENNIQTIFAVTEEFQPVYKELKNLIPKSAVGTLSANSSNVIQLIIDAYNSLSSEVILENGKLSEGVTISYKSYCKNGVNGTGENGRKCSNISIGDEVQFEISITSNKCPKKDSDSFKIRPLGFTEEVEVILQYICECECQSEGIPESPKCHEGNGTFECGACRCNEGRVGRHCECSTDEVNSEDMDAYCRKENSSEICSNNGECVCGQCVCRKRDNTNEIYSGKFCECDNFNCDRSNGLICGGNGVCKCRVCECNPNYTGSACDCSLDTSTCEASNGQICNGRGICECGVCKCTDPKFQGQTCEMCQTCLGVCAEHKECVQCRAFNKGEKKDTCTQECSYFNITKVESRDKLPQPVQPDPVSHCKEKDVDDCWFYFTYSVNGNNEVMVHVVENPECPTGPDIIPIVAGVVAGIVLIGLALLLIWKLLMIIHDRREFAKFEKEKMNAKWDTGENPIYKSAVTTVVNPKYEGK
Chain of Integrin alpha-5/beta-1 (P08648 42-894 limits assumed): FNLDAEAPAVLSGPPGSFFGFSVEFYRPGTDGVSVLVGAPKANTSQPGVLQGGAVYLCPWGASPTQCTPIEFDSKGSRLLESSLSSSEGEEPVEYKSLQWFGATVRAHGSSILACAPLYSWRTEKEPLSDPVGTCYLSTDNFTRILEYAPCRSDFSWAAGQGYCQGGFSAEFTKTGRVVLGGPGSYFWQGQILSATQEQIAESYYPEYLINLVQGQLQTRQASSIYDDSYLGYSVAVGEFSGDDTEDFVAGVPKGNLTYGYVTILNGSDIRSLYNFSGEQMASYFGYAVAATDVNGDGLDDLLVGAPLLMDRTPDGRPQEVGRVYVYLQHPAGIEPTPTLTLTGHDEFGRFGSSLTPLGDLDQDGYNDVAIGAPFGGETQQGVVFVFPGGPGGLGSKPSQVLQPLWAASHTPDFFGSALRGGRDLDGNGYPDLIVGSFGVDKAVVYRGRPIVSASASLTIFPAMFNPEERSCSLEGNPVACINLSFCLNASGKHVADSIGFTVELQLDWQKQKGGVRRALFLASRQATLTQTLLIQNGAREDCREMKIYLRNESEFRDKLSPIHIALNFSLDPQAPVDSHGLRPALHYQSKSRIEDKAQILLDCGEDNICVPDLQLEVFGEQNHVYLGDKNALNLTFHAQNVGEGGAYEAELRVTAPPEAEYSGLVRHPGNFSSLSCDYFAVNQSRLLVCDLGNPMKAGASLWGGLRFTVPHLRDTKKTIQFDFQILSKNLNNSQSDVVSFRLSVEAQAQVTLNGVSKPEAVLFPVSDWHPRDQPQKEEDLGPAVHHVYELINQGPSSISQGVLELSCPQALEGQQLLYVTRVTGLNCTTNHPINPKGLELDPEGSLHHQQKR
Chain of Integrin alpha-5/beta-1 (P08648 895-1049 limits assumed): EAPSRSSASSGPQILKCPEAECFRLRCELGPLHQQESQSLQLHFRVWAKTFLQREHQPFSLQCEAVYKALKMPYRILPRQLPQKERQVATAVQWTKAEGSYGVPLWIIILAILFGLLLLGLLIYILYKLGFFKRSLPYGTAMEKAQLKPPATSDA

Consider `O=C(CNC(=O)c1cccc(NC2=NCC(O)CN2)c1)NC[C@H](NC(=O)c1c(Cl)cc(-c2ccccc2)cc1Cl)C(=O)O` (stereo partly drawn), for which the half-inhibitory concentration (IC50) is less than 100 nM.

Turning to `N#Cc1cc(NC(=N)N)cc(C(=O)NCC(=O)NC[C@H](NC(=O)c2c(Cl)cc(-c3ccccc3)cc2Cl)C(=O)O)c1`, the IC50 was less than 100 nM.

The molecule `O=C(CNC(=O)c1cccc(NC2=NCCCO2)c1)NC[C@H](NC(=O)c1c(Cl)cc(-c2ccccc2)cc1Cl)C(=O)O` came in with a 50% inhibitory concentration (IC50) of less than 100 nM.

For orientation: IC50 means the concentration that gives 50% inhibition. High values mean weaker potency in that assay, low ones greater potency in that assay.

The record behind these values is ChEMBL document CHEMBL5729478, “Alpha-5 beta-1 inhibitors” (2022).
